Test results taken from US7671019B2, “3-deoxyglucosone and skin” (Dynamis Therapeutics, Inc., priority 2002, dated 2010).
Several values for one entry are separate records, joined by “and”; a condition that tells them apart may be missing. Identical values can stand only once. Blank lines part the entries; values can stand above or below the compound they belong to.

Assays:
[1] = molecular target: T1, Calf skin collagen Type 1 (Bos taurus, UniProt P02453+P02465); experiment: 3DG-induced collagen crosslinking, CNBr digestion and SDS-PAGE; assay type: biochemical; conditions: 37° C., 24 hours
T1 construct: Calf skin collagen Type 1 (1.3 mg; Sigma); purchased Sigma; host or cells: calf skin (tissue-derived)
Experimental: Collagen type I was treated with 3DG in the presence or absence of arginine. The samples were subjected to cyanogen bromide (CNBr) digestion, electrophoresed on a 16.5% SDS Tris-tricine gel, and then the gels were processed using silver stain techniques to visualize the proteins. Lane 1 contains molecular weight marker standards. Lanes 2 and 5 contain 10 and 20 μl of the collagen mixture following CNBr digestion. Lanes 3 and 6 contain the collagen mixture treated with 3DG and then digested with CNBr, and loaded at 10 and 20 μl, respectively. Lanes 4 and 7 contain the mixture of collagen incubated with 5 mM 3DG and 10 mM arginine and then digested with CNBr, and loaded at 10 and 20 μl, respectively.
Collagen I was incubated in the presence or absence of 3DG in vitro. Calf skin collagen Type 1 (1.3 mg; Sigma) was incubated in 20 mM Na-phosphate buffer, pH 7.25, either alone, with 5 mM 3DG, or with 5 mM 3DG plus 10 mM arginine, in a total volume of 1 ml at 37° C. for 24 hours and then frozen and lyophilized. The residue was dissolved in 0.5 ml of 70% formic acid and cyanogen bromide was added (20:1, w/w). This solution was incubated at 30° C. for 18 hours. […] The extent of collagen crosslinking was determined by applying equal volumes of sample and analyzing by SDS-PAGE electrophoresis (16.5% Tris-tricine gel), as determined by the effects of 3DG on the migration of collagen.

[2] = system: 3DG; experiment: Plasma 3DG levels in diabetic and non-diabetic rats treated with 3-O-methyl sorbitollysine; assay type: in vivo; conditions: 50 mg/kg injections, within one week
Experimental: A cohort of twelve diabetic rats was divided into two groups of six. The first group received saline-only injections, and the second received injections of 3-O-methyl sorbitollysine (50 mg/kg body weight) in saline solution. The same procedure was conducted on a cohort of twelve non-diabetic rats.

[3] = Locus of 3-O-methyl sorbitollysine uptake in vivo (tissue, urine, plasma analysis); design: species or system rats
Experimental: Six rats were injected intraperitoneally with […] (4.4 mg) of 3-O-methyl sorbitollysine. Urine was collected for 3 hours, after which the rats were sacrificed. The tissues to be analyzed were removed and freeze clamped in liquid nitrogen. Perchloric acid extracts of the tissues were used for metabolite analysis. The tissues examined were taken from the brain, heart, muscle, sciatic nerve, spleen, pancreas, liver, and kidney. Plasma was also analyzed.

[4] = Skin elasticity (vacuum pull needed to displace skin) in STZ-diabetic and normal rats; assay type: in vivo; conditions: 50 mg/kg daily subcutaneous, eight weeks
Experimental: Experiments were performed to determine the effects of DYN 12 on the loss of skin elasticity associated with diabetes. To this end, two groups of STZ-diabetic rats and two groups of normal rats were subjected to treatment with DYN 12 or saline. One group of STZ-diabetic rats (n=9) received daily subcutaneous injections of DYN 12 at 50 mg/kg for eight weeks, as did one group of normal rats (n=6). A group of control diabetic rats (n=10) and a group of normal rats (n=6) received saline instead of DYN 12. One rat was removed from the diabetic DYN 12 group after 2 weeks because its blood glucose readings were inconsistent (too low) with other diabetic rats.
A non-invasive procedure based on CyberDERM, Inc. technology utilizing a skin elasticity measurement device was used to test the effects of DYN 12 treatment on skin elasticity. The procedure provides for non-invasive measurement of skin elasticity based upon the amount of vacuum pull required to displace skin. A suction cup probe is adhered to an area of shaved skin in order to form an airtight seal. Then, a vacuum is applied to the area of the skin inside the suction cup until the skin is displaced past a sensor located inside the probe. Accordingly, the more pressure that is required to displace the skin, the less elastic the skin is.

[5] = Muscle strength of alert diabetic rats; assay type: in vivo; conditions: measured while alert, preliminary data
Description: The present invention also encompasses methods for prevention of hair loss associated with or mediated by loss of microcirculation and/or loss of neuro-innervation in populations of aging, sclerodermic and/or in diabetic individuals. This is because 3DG is a known precursor to the formation of AGEs which are known to be causally connected to the development of neuropathy. […] This supports the concept that maintenance of nerve conduction and microcirculation that supports nerve innervation is deleteriously affected not only by AGEs, but also 3DG. Similarly, where 3DG would cause blockage of the microcirculation that supports nerve innervation of the hair follicle, the hair follicle will atrophy and die, as is the case in neuropathy.Accordingly, the present invention includes methods for preventing hair loss, where such hair loss is associated with or mediated by the presence of 3DG in the skin proximal to a hair follicle/shaft.
Skin elasticity measurements were also taken on the test subjects as described above, but without sedating the test animals before measurement. FIG. 15 illustrates skin elasticity measurements taken on the hind leg of the test subjects while the subjects were alert and being restrained by a technician.
In these experiments, the animals were fiercely fighting restraint and the results are different.

[6] = system: mouse mesangial cells; experiment: Type IV collagen production in kidney cells in vitro; assay type: cell-based
Experimental: Type IV collagen production was measured in mouse mesangial cells. Controls (grown with […]) produced 300 ng of Type IV collagen per 10,000 cells, whereas fructoselysine treated cells (5 or 10 mM fructoselysine with 10 mM glucose) produced 560 and 1100 ng/10,000 cells.

[7] = design: species or system rats; conditions: rat, in vivo
Experimental: Two rats were injected daily with 5 μmols of either FL or mannitol (used as a control) for 5 days. The animals were sacrificed and the kidneys removed and dissected into the cortex and medulla. Tissues were homogenized in 5 volumes of 50 mM Tris-HCl containing 150 mM KCl, 15 mM MgCl2 and 5 mM DTT, pH 7.5. Cellular debris was removed by centrifugation at 10,000×g for 15 minutes, and the supernatant was then centrifuged at 150,000×g for 70 minutes. The soluble proteins were analyzed by SDS PAGE on 12% polyacrylamide gels as well as on 4-15 and 10-20% gradient gels.

[8] = design: species or system human; conditions: in vivo
Experimental: Volunteers spent two days on a fructoselysine-free diet and then consumed 22.5 g of the food product prepared as described herein, thus effectively receiving a 2 gram dose of fructoselysine. Urine was collected at 2 hour intervals for 14 hours and a final collection was made at 24 hours. FL was measured by HPLC with a Waters 996 diode Array using a Waters C18 Free Amino Acid column at 46° C. and a gradient elution system of acetonitrile-methyl alcohol-water (45:15:40) into acetonitrile-sodium acetate-water (6:2:92) at 1 ml/min. Quantitation employed an internal standard of meglumine. 3DF was measured by HPLC after deionization of the sample. Analyses were performed on a Dionex DX-500 HPLC system employing a PA1 column (Dionex) and eluting with 32 mM sodium hydroxide at 1 ml/min. Quantitation was performed from standard curves obtained daily with synthetic 3DF. 3DG was measured by GC-MS after deionization of the sample. 3DG was derivatized with a 10-fold excess of diaminonaphthalene in PBS. Ethyl acetate extraction gave a salt free fraction which was converted to the trimethyl silyl ethers with Tri-Sil (Pierce). Analysis was performed on a Hewlett-Packard 5890 selected ion monitoring GC-MS system. […] Quantitation of 3DG employed selected ion monitoring using an internal standard of U-13C-3DG.

T1 sequence (P02453 162-1217 limits assumed): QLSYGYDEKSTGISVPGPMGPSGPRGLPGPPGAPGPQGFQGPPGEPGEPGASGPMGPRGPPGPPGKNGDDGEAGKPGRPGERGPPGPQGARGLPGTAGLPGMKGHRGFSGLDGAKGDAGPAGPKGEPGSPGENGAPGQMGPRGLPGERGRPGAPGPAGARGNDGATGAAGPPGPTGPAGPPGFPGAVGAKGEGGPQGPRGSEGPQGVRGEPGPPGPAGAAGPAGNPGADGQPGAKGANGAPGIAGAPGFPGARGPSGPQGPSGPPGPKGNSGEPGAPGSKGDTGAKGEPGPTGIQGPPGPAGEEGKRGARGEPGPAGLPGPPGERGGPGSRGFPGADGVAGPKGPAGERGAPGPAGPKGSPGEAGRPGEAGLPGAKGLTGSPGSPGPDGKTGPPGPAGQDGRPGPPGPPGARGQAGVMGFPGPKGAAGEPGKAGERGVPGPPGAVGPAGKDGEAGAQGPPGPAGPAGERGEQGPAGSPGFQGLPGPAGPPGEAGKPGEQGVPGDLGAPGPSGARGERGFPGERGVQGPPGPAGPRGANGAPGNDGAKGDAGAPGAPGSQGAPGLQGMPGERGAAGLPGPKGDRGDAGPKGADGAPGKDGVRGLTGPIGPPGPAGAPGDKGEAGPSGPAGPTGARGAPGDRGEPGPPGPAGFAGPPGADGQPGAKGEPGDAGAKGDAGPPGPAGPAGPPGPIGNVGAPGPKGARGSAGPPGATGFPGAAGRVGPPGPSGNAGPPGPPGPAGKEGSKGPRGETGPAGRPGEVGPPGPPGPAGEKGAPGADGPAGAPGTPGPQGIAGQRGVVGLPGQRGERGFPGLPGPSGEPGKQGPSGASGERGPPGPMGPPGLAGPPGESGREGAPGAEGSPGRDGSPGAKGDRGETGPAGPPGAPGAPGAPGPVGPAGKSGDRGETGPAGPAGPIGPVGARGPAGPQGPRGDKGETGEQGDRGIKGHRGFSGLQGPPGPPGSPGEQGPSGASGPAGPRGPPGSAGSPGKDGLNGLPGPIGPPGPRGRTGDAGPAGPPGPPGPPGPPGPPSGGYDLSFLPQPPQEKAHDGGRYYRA
T1 sequence (P02465 80-1117 limits assumed): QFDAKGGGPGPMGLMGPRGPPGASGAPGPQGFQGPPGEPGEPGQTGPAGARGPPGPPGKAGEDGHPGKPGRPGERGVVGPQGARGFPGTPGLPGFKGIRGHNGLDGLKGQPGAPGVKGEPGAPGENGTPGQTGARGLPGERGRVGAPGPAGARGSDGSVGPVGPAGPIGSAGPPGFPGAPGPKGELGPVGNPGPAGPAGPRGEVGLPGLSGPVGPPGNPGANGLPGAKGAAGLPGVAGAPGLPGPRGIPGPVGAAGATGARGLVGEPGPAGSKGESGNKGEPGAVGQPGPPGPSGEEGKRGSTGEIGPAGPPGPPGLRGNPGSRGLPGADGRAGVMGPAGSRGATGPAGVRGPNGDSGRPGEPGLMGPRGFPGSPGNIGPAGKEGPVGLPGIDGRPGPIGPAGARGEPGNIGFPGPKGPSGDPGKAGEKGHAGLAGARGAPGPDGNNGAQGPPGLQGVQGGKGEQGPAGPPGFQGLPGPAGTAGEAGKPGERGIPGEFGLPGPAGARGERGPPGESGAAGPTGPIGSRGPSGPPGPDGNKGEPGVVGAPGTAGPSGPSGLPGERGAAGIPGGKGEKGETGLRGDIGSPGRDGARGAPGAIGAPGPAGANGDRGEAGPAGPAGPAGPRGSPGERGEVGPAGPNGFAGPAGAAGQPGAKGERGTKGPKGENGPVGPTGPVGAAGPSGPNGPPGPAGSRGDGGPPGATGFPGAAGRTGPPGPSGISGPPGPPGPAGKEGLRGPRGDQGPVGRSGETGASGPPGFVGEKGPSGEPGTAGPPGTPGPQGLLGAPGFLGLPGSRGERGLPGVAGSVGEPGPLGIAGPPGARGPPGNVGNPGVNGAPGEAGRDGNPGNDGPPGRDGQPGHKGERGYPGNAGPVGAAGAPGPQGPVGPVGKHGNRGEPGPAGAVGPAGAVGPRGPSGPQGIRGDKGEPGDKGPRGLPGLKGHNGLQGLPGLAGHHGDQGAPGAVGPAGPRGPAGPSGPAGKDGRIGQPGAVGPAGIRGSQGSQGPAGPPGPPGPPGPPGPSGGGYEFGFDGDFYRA

Structure (SMILES): O=CC(=O)C[C@H](O)[C@H](O)CO [3DG, 3-deoxyglucosone]
collagen crosslinking (migration on SDS-PAGE) ([1]; 5 mM 3DG): caused the collagen to migrate as if it had a higher molecular weight

compound contained in plasma ([3]; 3 hours after i.p. injection): plasma did not
Structure (SMILES): COC(C(O)CNCCCCC(N)C(=O)O)C(O)C(O)CO (stereo not drawn) [DYN 12, 3-O-methyl sorbitollysine]
plasma 3DG level ([2]; Diabetic rats): 0.44 ± 0.10 µM | plasma 3DG level ([2]; Non-diabetic rats): 0.13 ± 0.02 µM | % 3OMeSL recovered (injected dose recovered from urine and kidney) ([3]; individual rats, urine plus kidneys, 3 hours, listed as 3OMeSL): 91.5% and 38.8% and 96.4% and 61.2% and 53.0% and 53.3% | amount of pressure needed to displace the skin [4]: 3.2±1.2 kPA | muscle strength vs diabetic rats not so treated [5]: stronger muscle strength

Structure (SMILES): N=C(N)NCCC[C@H](N)C(=O)O [arginine]
inhibition of 3DG induced collagen crosslinking (high molecular weight bands) ([1]; 5 mM 3DG plus 10 mM arginine): fewer high molecular bands

time of peak 3DF excretion in urine after the FL bolus [8]: about 4 hours
Structure (SMILES): N[C@@H](CCCCNCC(=O)[C@@H](O)[C@H](O)[C@H](O)CO)C(=O)O [fructoselysine, 1-deoxy-1-(e-aminolysine)-fructose]
Type IV collagen produced ([6]; 5 mM fructoselysine with 10 mM glucose): 560 ng/10,000 cells | Type IV collagen produced ([6]; 10 mM fructoselysine with 10 mM glucose): 1100 ng/10,000 cells | soluble kidney proteins on SDS PAGE vs mannitol-injected animal [7]: lower molecular weight bands were missing or visually reduced
